Laboratory results: US12544365B2, “Pharmaceutical combination of an EP4 antagonist and immune checkpoint inhibitors for the treatment of tumours” (ROTTAPHARM BIOTECH S.R.L., priority 2019, dated 2026)

Assays:
[1] = biological target: human recombinant EP4 receptor (Homo sapiens, UniProt P35408); experiment: [3H]-PGE2 specific binding on human recombinant EP4 receptor (HEK293 membranes)
Procedure: Cell membranes were prepared from HEK293 cell line (Human Embryonic Kidney 293) stably overexpressing human recombinant EP4 receptor. Cells grow adherent in DMEM with Glutamax | containing 10% FBS at 37° C. with 5% CO2. For membranes preparation, culture medium was aspirated from 150 cm^2 flasks in which cells were seeded. Cell monolayers were washed with 10 ml of hypotonic lysis buffer (TRIS 5 mM+EDTA 5 mM-pH 7.4), then cells were detached and lysed with the same buffer and by mechanical scraping. Lysates were centrifuged at 40000×g at 4° C. for 22 min. Pellets were stored at −80° C. until the use.
[3H]-Prostaglandin E2 ([3H]-PGE2) binding assays were performed in 10 mM MES-KOH buffer pH6, containing 10 mM MgCl2 and 1 mM CaCl2. Ten microgram of protein from membrane fractions are incubated in a total volume of 0.1 ml with 1 nM [3H]-PGE2. In order to determine the total binding or the non specific binding, 1% DMSO or 1 μM PGE2 were added to reaction mixtures, respectively. The specific binding represented >85% of total binding. In competition curves, the diluent was substituted by the test compounds (8 concentration spanning at least 2 order of magnitude; points in duplicates). In an independent series of experiments, competition curves of the same compounds were performed in the presence of Bovine Serum Albumin 0.5%. Incubation was carried out in a 96 multiwell plate for 90 min at room temperature, prior to separation of the bound and free radioligand by rapid filtration on glass fiber filters (Unifilter GFB96, PerkinElmer Inc) pre-soaked in 0.3% polyethyleneimine. Filters were washed with ice cold buffer pH 7.4 (50 mM HEPES, NaCl 500 mM, BSA 0.1%), dried for 30 minutes at 30° C. and then 0.1 ml of MICROSCINT-20 (PerkinElmer Inc) were added. The residual [3H]-PGE2 binding was determined by solid scintillation counter (TopCount, PerkinElmer Inc), after at least 1 hour of stabilization. Results of the competition curves were expressed as IC50 and the corresponding Ki were calculated according to the Chang-Prousoff equation. Finally the Ki value was transformed in pKi (the negative log of Ki).

[2] = test system: CT26 cancer cell tumours; experiment: CT26 syngeneic model of mouse colorectal cancer in Balb/c mice; assay type: in vivo; conditions: compounds 30 mg/kg oral daily day 7-23; anti PD-1 i.p. 20 mg/kg day 8, 10 mg/kg days 13, 19, 22
Procedure: Male Balb/c mice 4-6 weeks old were housed five per cage in a temperature and humidity controlled room with a 12h/12h light/dark cycle. Throughout the experiment the animals had free access to food and water. The Balb/c mice were randomly divided into 6 groups (n=15 in each group): vehicle, Compound 1, Compound 2, anti PD-1, Compound 1+anti PD-1, Compound 2+anti PD-1 group.
CT26 cells were purchased from ATCC and cultured in Dulbecco's Modified Eagle's Medium (DMEM; ThermoFisher Scientific) supplemented with 10% fetal bovine serum (FBS; Sigma Aldrich) at 37° C. in an incubator with 5% CO2. Cells were sub-cultured twice a week until the number of cells needed for inoculation was obtained.
On the day of transplantation (day 0) logarithmic growing phase cells were harvested, diluted in PBS and 10^6 cells in 0.2 ml of PBS were subcutaneously inoculated into the lateral abdominal region of each mouse using a 26G syringe.
On day 7 after inoculation the mice were randomized into the 6 treatment groups each of 15 animals receiving respectively vehicle, Compound 1, Compound 2, anti PD-1 and the combination therapies. […]
Tumour sizes (mm^3) were evaluated twice a week by using a digital caliper. The tumour volumes were calculated measuring the tumour lengths along the major and minor axis and using the formula: Volume=[[…]]/2.

human recombinant EP4 receptor, sequence (P35408 whole entry): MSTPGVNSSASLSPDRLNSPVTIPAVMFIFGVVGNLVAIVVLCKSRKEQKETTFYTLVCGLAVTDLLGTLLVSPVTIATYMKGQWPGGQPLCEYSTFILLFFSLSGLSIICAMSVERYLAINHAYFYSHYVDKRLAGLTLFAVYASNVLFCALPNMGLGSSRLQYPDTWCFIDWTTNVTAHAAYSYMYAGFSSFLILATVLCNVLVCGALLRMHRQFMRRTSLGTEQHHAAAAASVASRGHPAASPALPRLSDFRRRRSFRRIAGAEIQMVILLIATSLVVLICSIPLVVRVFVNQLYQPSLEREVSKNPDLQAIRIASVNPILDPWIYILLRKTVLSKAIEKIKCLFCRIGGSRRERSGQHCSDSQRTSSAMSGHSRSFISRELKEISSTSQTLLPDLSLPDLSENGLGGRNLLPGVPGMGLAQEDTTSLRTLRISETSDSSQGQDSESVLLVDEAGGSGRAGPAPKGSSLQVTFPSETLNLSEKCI

O=C([O-])c1ccc(C2(NC(=O)[C@H]3CCCCN3Cc3ccc(C(F)(F)F)cc3)CC2)cc1.[Na+] [Compound 2, (R)-4-(1-(1-(4-(trifluoromethyl)benzyl)piperidine-2-carboxamido)cyclopropyl)benzoic acid, Sodium salt]
Ki ([1]; BSA 0.5%): 0.2 µM
lower affinity in the presence of proteins (BSA) ([1]; BSA 0.5% vs none): 6 fold
Ki ([1]; None (absence of BSA)): 0.0316 µM
effect on tumour growth (tumour volume) [2]: only showed a slight impairment of tumour growth
